Where no end group is shown, it is not given here. [ ]: non-standard residue; d: D form. TGN = not defined here
Legend:
[1] = tested on: CTNNB1; assay: In vitro DMD assay: mRNA silencing enhancement by peptide conjugates after siRNA-IV treatment; type: cell-based; conditions: primary mouse hepatocytes, siRNA-IV 125 nM baseline
How it was run: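 RT-qPCR read-out, PPIB-normalized (dddCt), gave silencing enhancement versus 125 nM siRNA-IV alone and untreated cells. Beforehand, cultured primary mouse hepatocytes received siRNA-IV for 1 h, then graded peptide-conjugate doses for ~16 h, followed by washout and a further 24 h incubation.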

[2] = tested on: CTNNB1; assay: In vivo evaluation in mice: liver mRNA knockdown measurement
Procedure: Female CD-1 mice (Charles River) were injected in accordance with either a sequential dosing paradigm or a co-dosing paradigm. In the sequential dosing paradigm, the targeted siRNA (SCE) is dosed at t=0 and the targeted peptide is separately dosed up to 2 hr before the SCE (−2 hr) or up to 24 hr after the SCE (+24 hr). In the co-dosing paradigm, the SCE and peptides are co-formulated and dosed together in the same formulation as a single injection at t=0. The mice were dosed either by intravenous (i.v.) or subcutaneous (s.c.) injection of SCE and peptide. For the i.v. doses, the compounds were injected into the tail vein of the mice. For the s.c. doses, the compounds were injected in the subcutaneous space on the back of the mouse between the shoulder blades. At the indicated harvest times (measured from t=0 when the siRNA was dosed, regardless of when the peptide was dosed), the animals were sacrificed and 3 mm liver punches were collected, preserved in RNAlater (Ambion), and stored at 4° C. Separate 5 mm liver punches were collected, placed in 96-well plates, frozen on dry ice, and stored at −80° C. until use.
The 3 mm liver punches were removed from RNAlater and homogenized in Trizol (Invitrogen) using a bead mill tissue lyser (Qiagen); disruption was performed for two 5-minute cycles at 30 Hz. RNA extraction was performed using 1-bromo-2-chloropropane (Acros Organics) and total RNA was isolated from the aqueous phase using the MagMax RNA isolation method (Ambion). […] TaqMan qPCR analysis was performed with an ABI 7900 Real-Time PCR System using TaqMan Fast Advanced Master Mix (Applied Biosystems). All TaqMan probes and primers for CTNNB1 and PPIB (housekeeping gene) were purchased from Applied Biosystems as pre-validated gene expression assays. Results are calculated by the comparative Ct method, where the difference between the CTNNB1 Ct value and the PPIB Ct value (ΔCt) is calculated and then further normalized relative to the PBS control by taking a second difference (ΔΔCt), as described previously (1).

[3] = mice, TGN-L-siRNA-III 0.25 mg/kg IV, peptide 10 mg/kg IV 15 min after siRNA
[4] = mice, TGN-L-siRNA-III 0.5 mg/kg IV, peptide 2 mg/kg IV 15 min after siRNA
[5] = mice, TGN-L-siRNA-III 0.5 mg/kg IV, peptide 10 mg/kg IV 15 min after siRNA
[6] = mice, TGN-L-siRNA-II 0.25 mg/kg IV, peptide 1 mg/kg IV 15 min after siRNA
[7] = mice, TGN-L-siRNA-II 0.25 mg/kg IV, peptide 3 mg/kg IV 15 min after siRNA
[8] = mice, TGN-L-siRNA-III 0.25 mg/kg IV, peptide 5 mg/kg IV 15 min after siRNA
[9] = Table 8 (linkage comparison), TGN-L-siRNA-II 0.25 mg/kg, peptide 1 mg/kg
[10] = Table 8 (linkage comparison), TGN-L-siRNA-II 0.25 mg/kg, peptide 3 mg/kg
[11] = mice, TGN-L-siRNA-III 0.25 mg/kg IV, peptide 2 mg/kg IV 15 min after siRNA

## TGN-S-S-SEQ ID NO: 1634 (D) ([dC]G[dL][dF]G[dE][dI][dH][dE][dL][dI][dH][dH]G[dL][dE][dN][dL][dI][dD][dW][dW][dN]G; not fully specified (residue 1); also: TGN attached via disulfide; listed as Homo sapiens)
[1]; Targeted peptide dose 125 nM
  In vitro dddCt (vs. baseline SCE dose): −0.3
[1]; Targeted peptide dose 625 nM
  In vitro dddCt (vs. baseline SCE dose): −0.41
[1]; Targeted peptide dose 3125 nM
  In vitro dddCt (vs. baseline SCE dose): −0.3
[1]; Targeted peptide dose 15625 nM
  In vitro dddCt (vs. baseline SCE dose): −0.74
[2]; [3]
  In vivo mRNA knockdown: 17%

## TGN-S-S-SEQ ID NO: 1746 (D): TGN-S-S-peptide; peptide CEALFGKINAIFIGKL ([dC][dE][dA][dL][dF]G[dK][dI][dN][dA][dI][dF][dI]G[dK][dL]; not fully specified (residue 1); also: disulfide to TGN peptide via Cys1; listed as Homo sapiens)
[1]; Targeted peptide dose 8 nM
  In vitro dddCt (vs. baseline SCE dose): −0.01
[1]; Targeted peptide dose 40 nM
  In vitro dddCt (vs. baseline SCE dose): −0.09
[1]; Targeted peptide dose 200 nM
  In vitro dddCt (vs. baseline SCE dose): −0.07
[1]; Targeted peptide dose 1000 nM
  In vitro dddCt (vs. baseline SCE dose): −0.09
[1]; Targeted peptide dose 5000 nM
  In vitro dddCt (vs. baseline SCE dose): −0.04
[2]; [4]
  In vivo mRNA knockdown: 31%
[2]; [5]
  In vivo mRNA knockdown: 25%

## TGN-S-S-SEQ ID NO: 1631 (D) ([dC]G[dL][dF]G[dH][dI][dH][dH][dL][dI][dH][dH]G[dL][dH][dN][dL][dI][dD][dW][dW][dN]G; not fully specified (residue 1); also: TGN attached via disulfide; listed as Homo sapiens)
[1]; Targeted peptide dose 15625 nM
  In vitro dddCt (vs. baseline SCE dose): −2.11
[2]; [3]
  In vivo mRNA knockdown: 17%

## TGN-S-S- SEQ ID NO: 1738 (D) (G[dL][dF]G[dE][dI][dE][dE][dL][dI][dE][dE]G[dL][dE][dN][dL][dI][dD][dW]G[dN]G[dL][dA][dE][dL][dA][dE][dA][dL][dE][dA][dL][dA][dA]GG[dS][dC]; not fully specified (residue 40); also: TGN attached via disulfide; listed as Homo sapiens)
[2]; [6]
  In vivo mRNA knockdown: 25%
[2]; [7]
  In vivo mRNA knockdown: 44%

## TGN-S-S-SEQ ID NO: 1516 (L) (C(TGN)GLFAEIEELLEEGLENLIDWWNG; reading uncertain; also: TGN disulfide conjugate at Cys1; listed as Homo sapiens)
[2]; [8]
  In vivo mRNA knockdown: 14%

## TGN-S-S-SEQ ID NO: 1744 (D) ([dC][dE][dE][dN][dW][dI]G[dL][dF]GGG[dN][dI][dW][dE][dE][dE][dE][dI][dL][dD][dL][dL]; not fully specified (residue 1); also: disulfide to TGN peptide via Cys1; listed as Homo sapiens)
[2]; [4]
  In vivo mRNA knockdown: 28%
[2]; [5]
  In vivo mRNA knockdown: 33%

## TGN-S-S-SEQ ID NO: 1727 (D): TGN-S-S-peptide; peptide CGLFAVIHHVASVIGGL ([dC]G[dL][dF][dA][dV][dI][dH][dH][dV][dA][dS][dV][dI]GG[dL]; not fully specified (residue 1); also: TGN attached via disulfide; listed as Homo sapiens)
[2]; [3]
  In vivo mRNA knockdown: 26%

## TGN-S-S-SEQ ID NO: 1741(L): TGN-S-S-peptide; peptide GLFGALAEALAEALAEHLAEALAEALEALAAGGSC (GLFGALAEALAEALAEHLAEALAEALEALAAGGSC(TGN); reading uncertain; also: TGN linked to Cys via disulfide, TGN not defined; listed as Homo sapiens)
[2]; [7]
  In vivo mRNA knockdown: 24%

## TGN-ECL-SEQ ID NO: 1802 (D): TGN-ECL-peptide; peptide gffgaiwefihsil (G[dF][dF]G[dA][dI][dW][dE][dF][dI][dH][dS][dI][dL]; also: TGN-ECL conjugate; listed as Homo sapiens)
[2]; [9]
  In vivo mRNA knockdown: 28.7%
[2]; [10]
  In vivo mRNA knockdown: 64.0%

## TGN-S-S-SEQ ID NO: 1717(L): TGN-S-S-peptide; peptide CFLGALFHALSHLLENLIDWWNG (C(TGN)FLGALFHALSHLLENLIDWWNG; reading uncertain; also: TGN disulfide conjugate at Cys1; listed as Homo sapiens)
[2]; mice, TGN-L-siRNA-III 0.5 mg/kg IV, peptide 5 mg/kg IV 15 min after siRNA
  In vivo mRNA knockdown: 16%

## TGN-S-S-SEQ ID NO: 1719 (L) (C(TGN)GLFAEIEELIWEGLENLIDWWNQ; reading uncertain; also: TGN disulfide conjugate at Cys1; listed as Homo sapiens)
[2]; [8]
  In vivo mRNA knockdown: 25%

## TGN-S-S-SEQ ID NO: 935 (L) (C(TGN)GFFGEIAELIWEGLKNLIDWWNG; reading uncertain; also: TGN linked to Cys via disulfide, TGN not defined; listed as Homo sapiens)
[2]; [11]
  In vivo mRNA knockdown: 17%
[2]; [3]
  In vivo mRNA knockdown: 23%

## TGN-S-S-SEQ ID NO: 1740 (D): TGN-S-S-peptide; peptide GLFEAIEGFIENGWEGLAELAEALEALAAGGSC (G[dL][dF][dE][dA][dI][dE]G[dF][dI][dE][dN]G[dW][dE]G[dL][dA][dE][dL][dA][dE][dA][dL][dE][dA][dL][dA][dA]GG[dS][dC]; not fully specified (residue 33); also: disulfide to TGN peptide via Cys33; listed as Homo sapiens)
[2]; [6]
  In vivo mRNA knockdown: 23%
[2]; [7]
  In vivo mRNA knockdown: 42%

## TGN-S-S-SEQ ID NO: 1403 (L) (C(TGN)GLLEEIEELLEEGLENLIDWWNS; reading uncertain; also: TGN disulfide conjugate at Cys1; listed as Homo sapiens)
[2]; [11]
  In vivo mRNA knockdown: 22%
[2]; [3]
  In vivo mRNA knockdown: 24%

## TGN-CDM-SEQ ID NO: 1801 (D): TGN-CDM peptide; peptide glfgeieelieeglenlidwgng; C8 made from the same all(D) sequence (G[dL][dF]G[dE][dI][dE][dE][dL][dI][dE][dE]G[dL][dE][dN][dL][dI][dD][dW]G[dN]G; also: TGN-CDM conjugate; listed as Homo sapiens)
[2]; [9]
  In vivo mRNA knockdown: 23.0%
[2]; [10]
  In vivo mRNA knockdown: 24.9%

## TGN-S-S-SEQ ID NO: 1643 (D) ([dC]G[dF][dF]G[dE][dI][dA][dE][dL][dI][dE][dE]G[dL][dK][dN][dL][dI][dD][dW]G[dN]G; not fully specified (residue 1); also: TGN attached via disulfide; listed as Homo sapiens)
[2]; [3]
  In vivo mRNA knockdown: 41%

## TGN-S-S-SEQ ID NO: 1725 (L) (C(TGN)SSAWWSYWPPVA; reading uncertain; also: TGN disulfide conjugate at Cys1; listed as Homo sapiens)
[2]; [3]
  In vivo mRNA knockdown: 19%

## TGN-S-S-SEQ ID NO: 1726(D): TGN-S-S-peptide; peptide CGLFAVIKKVASVIGGL ([dC]G[dL][dF][dA][dV][dI][dK][dK][dV][dA][dS][dV][dI]GG[dL]; not fully specified (residue 1); also: TGN attached via disulfide; listed as Homo sapiens)
[2]; [3]
  In vivo mRNA knockdown: 23%

— US10239957B2, “Peptide containing conjugates for dual molecular delivery of oligonucleotides” (Merck Sharp & Dohme Corp., priority 2013, dated 2019)
